# Source: patent US7351728B2, “Oxazolyl-aryloxyacetic acid derivatives and their use as PPAR agonists” (Eli Lilly and Company, priority 2003, dated 2008)
# Key:
# [1] = test system: db/db mice; experiment: Evaluation of glucose levels in db/db mice; assay type: in vivo; details: Mus musculus, 168 h; 30 mg/kg daily oral gavage 7 days, male db/db mice; 100% = lean values; read-out: Glucose Normalization %
# Procedure: Five week old male diabetic (db/db) mice [C57BlKs/j-m +/+ Lepr(db), Jackson Laboratory, Bar Harbor, Me.] or lean littermates (db+) were housed 6 per cage (10″×20″×8″ with aspen chip bedding) with food (Purina 5015) and water available at all times. After an acclimation period of 2 weeks, animals were individually identified by ear notches, weighed, and bled via the tail vein for determination of initial glucose levels. Blood was collected (100 μl) from unfasted animals by wrapping each mouse in a towel, cutting the tip of the tail with a scalpel, and milking blood from the tail into a heparinized capillary tube (Fisher) balanced on the edge of the bench. Sample was discharged into a heparinized microtainer with gel separator (VWR) and retained on ice. Plasma was obtained after centrifugation at 4° C. and glucose measured immediately. Remaining plasma was frozen until the completion of the experiment, when glucose and triglycerides were assayed in all samples. Animals were grouped based on initial glucose levels and body weights. Beginning the following morning, mice were dosed daily by oral gavage for 7 days using a 20 gauge, 1½″ curved disposable feeding needle. Treatments were test compounds (30 mg/kg), a positive control agent (30 mg/kg) or vehicle [1% carboxymethylcellulose (w/v)/0.25% Tween80 (w/v); 0.3 ml/mouse]. On day 7, mice were weighed and bled (tail vein) 3 hours after dosing. Twenty-four hours after the 7th dose (i.e., day 8), animals were bled again (tail vein). Samples obtained from conscious animals on days 0, 7 and 8 were assayed for glucose. After the 24 hour bleed, animals were weighed and dosed for the final time. Three hours after dosing on day 8, animals were anesthetized by inhalation of isoflurane and blood obtained via cardiac puncture (0.5-0.7 ml). Whole blood was transferred to serum separator tubes, chilled on ice and permitted to clot. Serum was obtained after centrifugation at 4° C. and frozen until analysis for compound levels. After sacrifice by cervical dislocation, the liver, heart and epididymal fat pads were excised and weighed.
# The animals dosed with vehicle had average triglycerides values of 170-230 mg/dl, which were reduced by the positive PPARγ control (70-120 mg/dl with a mean reduction of 50%). Male db/db mice were hyperglycemic (average glucose of 680-730 mg/dl on the 7th day of treatment), while lean animals had average glucose levels between 190-230 mg/dl.
# Glucose was measured colorimetrically using commercially purchased reagents (Sigma #315-500). According to the manufacturers, the procedures were modified from published work (McGowan, M. W., Artiss, J. D., Strandbergh, D. R. & Zak, B. Clin Chem, 20:470-5 (1974) and Keston, A. Specific colorimetric enzymatic analytical reagents for glucose. Abstract of papers 129th Meeting ACS, 31C (1956).); and depend on the release of a mole of hydrogen peroxide for each mole of analyte, coupled with a color reaction first described by Trinder (Trinder, P. Determination of glucose in blood using glucose oxidase with an alternative oxygen acceptor. Ann Clin Biochem, 6:24 (1969)). The absorbance of the dye produced is linearly related to the analyte in the sample. The assays were further modified in our laboratory for use in a 96 well format. Standards (Sigma #339-11, Sigma #16-11, and Sigma #CC0534 for glucose triglycerides and total cholesterol, respectively), quality control plasma (Sigma # A2034), and samples (2 or 5 μl/well) were measured in duplicate using 200 μl of reagent. An additional aliquot of sample, pipetted to a third well and diluted in 200 μl water, provided a blank for each specimen. Plates were incubated at room temperature (18, 15, and 10 minutes for glucose, triglycerides and total cholesterol, respectively) on a plate shaker (DPC Micormix 5) and absorbance read at 500 nm (glucose and total cholesterol) or 540 nm (triglycerides) on a plate reader (Wallac Victor 1420). […]
# [2] = test system: HuapoAI transgenic mice; experiment: Evaluation of triglyceride and cholesterol level in HuapoAI transgenic mice; assay type: in vivo; details: for change in vivo at 30 mg/kg / inhibition in vivo at 30 mg/kg: Mus musculus, 168 h, 30 mg/kg daily oral gavage 7 days; for change in vivo at 30 mg/kg: percent increase in FPLC HDLc area under the curve; for inhibition in vivo at 30 mg/kg: serum, male human apoAI transgenic mice, read-out: % Triglyceride Reduction
# Procedure: Five to six week old male mice, transgenic for human apoAI [C57Bl/6-tgn(apoa1)lrub, Jackson Laboratory, Bar Harbor, Me.] were housed five per cage (10″×20″×8″ with aspen chip bedding) with food (Purina 5001) and water available at all times. After an acclimation period of 2 weeks, animals were individually identified by ear notches, weighed, and assigned to groups based on body weight. Beginning the following morning, mice were dosed daily by oral gavage for 7 days using a 20 gauge, 1½″ curved disposable feeding needle (Popper & Sons). Treatments were test compounds (30 mg/kg), a positive control (fenofibrate, 100 mg/kg) or vehicle [1% carboxymethylcellulose (w/v)/0.25% Tween80 (w/v); 0.2 ml/mouse]. Prior to termination on day 7, mice were weighed and dosed. Three hours after dosing, animals were anesthetized by inhalation of isoflurane (2-4%; Abbott Laboratories, Chicago, Ill.) and blood obtained via cardiac puncture (0.7-1.0 ml). Whole blood was transferred to serum separator tubes (Vacutainer SST), chilled on ice, and permitted to clot. Serum was obtained after centrifugation at 4° C. and frozen until analysis for triglycerides, total cholesterol, compound levels, and serum lipoprotein profile by fast protein liquid chromatography (FPLC) coupled to an inline detection system. After sacrifice by cervical dislocation, the liver, heart and epididymal fat pads were excised and weighed.
# The animals dosed with vehicle had average triglycerides values of 60-80 mg/dl, which were reduced by the positive control fenofibrate (33-58 mg/dl with a mean reduction of 37%). The animals dosed with vehicle had average total serum cholesterol values of 140-180 mg/dl, which were increased by fenofibrate (190-280 mg/dl, with a mean elevation of 41%). […] Fenofibrate increased the amount of HDLc (68-96 v-sec with a mean percent increase of 48%).
# Glucose was measured colorimetrically using commercially purchased reagents (Sigma #315-500). According to the manufacturers, the procedures were modified from published work (McGowan, M. W., Artiss, J. D., Strandbergh, D. R. & Zak, B. Clin Chem, 20:470-5 (1974) and Keston, A. Specific colorimetric enzymatic analytical reagents for glucose. Abstract of papers 129th Meeting ACS, 31C (1956).); and depend on the release of a mole of hydrogen peroxide for each mole of analyte, coupled with a color reaction first described by Trinder (Trinder, P. Determination of glucose in blood using glucose oxidase with an alternative oxygen acceptor. Ann Clin Biochem, 6:24 (1969)). The absorbance of the dye produced is linearly related to the analyte in the sample. The assays were further modified in our laboratory for use in a 96 well format. Standards (Sigma #339-11, Sigma #16-11, and Sigma #CC0534 for glucose triglycerides and total cholesterol, respectively), quality control plasma (Sigma # A2034), and samples (2 or 5 μl/well) were measured in duplicate using 200 μl of reagent. An additional aliquot of sample, pipetted to a third well and diluted in 200 μl water, provided a blank for each specimen. Plates were incubated at room temperature (18, 15, and 10 minutes for glucose, triglycerides and total cholesterol, respectively) on a plate shaker (DPC Micormix 5) and absorbance read at 500 nm (glucose and total cholesterol) or 540 nm (triglycerides) on a plate reader (Wallac Victor 1420). Sample absorbances were compared to a standard curve (100-800, 10-500, and 100-400 mg/dl for glucose, triglycerides and total cholesterol, respectively). Values for the quality control sample were always within the expected range and the coefficient of variation for samples was below 10%. All samples from an experiment were assayed at the same time to minimize inter-assay variability.
# Serum lipoproteins were separated and cholesterol quantitated with an in-line detection system. Sample was applied to a Superose® 6 HR 10/30 size exclusion column (Amersham Pharmacia Biotech) and eluted with phosphate buffered saline-EDTA at 0.5 ml/min. […]
# [3] = molecular target: T1, huPPARγ (Homo sapiens, UniProt P37231); experiment: Cotransfection assay in CV-1 cells, AOX PPRE luciferase reporter; assay type: cell-based; design: expressed in transfected cells; host or cells: CV-1 cells; details: cotransfection efficacy relative to PPARγ agonist reference molecule
# T1 sequence (P37231 1-505): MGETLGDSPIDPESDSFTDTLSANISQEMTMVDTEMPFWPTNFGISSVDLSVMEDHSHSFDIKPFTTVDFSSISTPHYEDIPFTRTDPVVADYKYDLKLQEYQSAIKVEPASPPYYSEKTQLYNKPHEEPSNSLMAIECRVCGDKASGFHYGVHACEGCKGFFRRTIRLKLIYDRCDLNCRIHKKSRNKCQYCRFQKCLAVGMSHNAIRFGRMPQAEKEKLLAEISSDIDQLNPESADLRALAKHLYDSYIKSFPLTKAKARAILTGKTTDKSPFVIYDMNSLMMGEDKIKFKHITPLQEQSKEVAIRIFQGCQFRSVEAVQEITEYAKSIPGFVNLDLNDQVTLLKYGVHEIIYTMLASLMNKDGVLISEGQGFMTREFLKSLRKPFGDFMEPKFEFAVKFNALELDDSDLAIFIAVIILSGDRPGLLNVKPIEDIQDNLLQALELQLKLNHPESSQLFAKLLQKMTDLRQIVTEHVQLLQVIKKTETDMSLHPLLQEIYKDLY
# T1 sequence (P19793 1-462 partner): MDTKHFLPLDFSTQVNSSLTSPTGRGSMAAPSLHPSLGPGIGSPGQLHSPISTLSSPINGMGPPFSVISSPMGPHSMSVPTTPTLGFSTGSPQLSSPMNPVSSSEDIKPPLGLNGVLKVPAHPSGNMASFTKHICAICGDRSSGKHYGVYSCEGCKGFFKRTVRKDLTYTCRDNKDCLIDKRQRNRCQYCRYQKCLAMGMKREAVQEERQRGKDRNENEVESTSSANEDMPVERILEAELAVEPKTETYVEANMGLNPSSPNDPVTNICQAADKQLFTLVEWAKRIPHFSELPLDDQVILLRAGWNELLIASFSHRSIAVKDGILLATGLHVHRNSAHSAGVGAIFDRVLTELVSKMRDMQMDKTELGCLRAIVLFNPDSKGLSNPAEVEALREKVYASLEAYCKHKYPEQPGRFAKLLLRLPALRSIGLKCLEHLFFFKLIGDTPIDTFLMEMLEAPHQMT
# Procedure: (§1) DNA-dependent binding (ABCD binding) was carried out using SPA technology with PPAR receptors. Tritium-labeled PPARα and PPARγ agonists were used as radioligands for generating displacement curves and IC50 values with compounds of the invention. Cotransfection assays were carried out in CV-1 cells. The reporter plasmid contained an acylCoA oxidase (AOX) PPRE and TK promoter upstream of the luciferase reporter cDNA. Appropriate PPARs and RXRα were constitutively expressed using plasmids containing the CMV promoter. […] In order to eliminate such interference, a GAL4 chimeric system was used in which the DNA binding domain of the transfected PPAR was replaced by that of GAL4, and the GAL4 response element was utilized in place of the AOX PPRE. Cotransfection efficacy was determined relative to PPARα agonist and PPARγ agonist reference molecules. Efficacies were determined by computer fit to a concentration-response curve, or in some cases at a single high concentration of agonist (10 μM). For binding or cotransfection studies with receptors other than PPARs, similar assays were carried out using appropriate ligands, receptors, reporter constructs, etc., for that particular receptor.
# (§2) These studies were carried out to evaluate the ability of compounds of the invention to bind to and/or activate various nuclear transcription factors, particularly huPPARα (“hu” indicates “human”) and huPPARγ. These studies provide in vitro data concerning efficacy and selectivity of compounds of the invention. Furthermore, binding and cotransfection data for compounds of the invention were compared with corresponding data for marketed compounds that act on either huPPARα or huPPARγ.
# (§3) Binding and cotransfection data for representative compounds of the invention are compared with corresponding data for reference compounds in Table II.
# [4] = test system: huPPARα; experiment: Cotransfection assay in CV-1 cells, luciferase reporter (GAL4 chimeric system); assay type: cell-based, human; details: cotransfection efficacy relative to PPARα agonist reference molecule
# Procedure: as §1, §2, §3
# [5] = 100 mg/kg daily oral gavage 7 days, versus vehicle
compound,measurement,setting,value
"Cc1oc(-c2ccccc2)nc1COc1ccc(OC(C)(C)C(=O)O)cc1 [Example 4, 2-Methyl-2-[4-(5-methyl-2-phenyloxazol-4-ylmethoxy)phenoxy]propionic acid]",melting point,,136 to 138 °C
"Cc1oc(-c2ccccc2)nc1CCOc1ccc(OC(C)(Cc2ccccc2)C(=O)O)cc1 (centres unmarked) [Example 6, 2-Methyl-2-{4-[2-(5-methyl-2-phenyloxazol-4-yl)ethoxy]phenoxy}-3-phenylpropionic acid]",inhibition in vivo at 30 mg/kg,[1],65%
same,change in vivo at 30 mg/kg,[2],20%
same,inhibition in vivo at 30 mg/kg,[2],35.4%
"C#Cc1cccc(-c2nc(CCOc3ccc(OC(C)(C)C(=O)O)cc3)c(C)o2)c1 [Example 10, 2-(4-{2-[2-(3-Ethynylphenyl)-5-methyloxazol-4-yl]ethoxy}phenoxy)-2-methylpropionic acid]",melting point,,131 to 134 °C
"CCc1cc(OC(C)(C)C(=O)O)ccc1OCCc1nc(-c2ccccc2)oc1C [Example 31A, 2-{3-Ethyl-4-[2-(5-methyl-2-phenyloxazol-4-yl)ethoxy]phenoxy}-2-methylpropionic acid]",inhibition in vivo at 30 mg/kg,[1],19%
same,change in vivo at 30 mg/kg,[2],98%
same,inhibition in vivo at 30 mg/kg,[2],-6.4%
"CC(C)(Oc1ccc(C(=O)c2ccc(Cl)cc2)cc1)C(=O)O [Fenofibric acid, reference compound]",huPPARγ CTF Eff. (%),[3],0%
same,huPPARα CTF Eff. (%),[4],16%
"Cc1c(C)c2c(c(C)c1O)CCC(C)(COc1ccc(CC3SC(=O)NC3=O)cc1)O2 (centres unmarked) [Troglitazone, reference compound]",huPPARα CTF Eff. (%),[4],0%
"CC(C)OC(=O)C(C)(C)Oc1ccc(C(=O)c2ccc(Cl)cc2)cc1 [fenofibrate, reference compound]",HDLc peak area,"[2]; 100 mg/kg daily oral gavage 7 days, FPLC of pooled sera, vehicle 47-62 v-sec",68-96 v-sec
same,mean elevation of total serum cholesterol,[2]; [5],41%
same,mean percent increase of HDLc,[2]; [5],48%
same,mean reduction of triglycerides,[2]; [5],37%
same,average triglycerides values,"[2]; 100 mg/kg daily oral gavage 7 days, vehicle 60-80 mg/dl",33 to 58 mg/dL
same,average total serum cholesterol values,"[2]; 100 mg/kg daily oral gavage 7 days, vehicle 140-180 mg/dl",190 to 280 mg/dL
